compound: Cc1ccc(NC(=O)c2ccc(CN3CCN(C)CC3)cc2)cc1Nc1nc(-c2cccnc2)cs1 [Masitinib]; assay: relative viability (nuclei count vs DMSO), 5 days (fraction); higher = more cells survive; details: 0.01 µM
Method in brief: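 Five library-drug doses spaced by √10 were pinned onto vehicle-anchored 1536-well plates of lung cancer cell lines that had been kept overnight at 37 °C. Cells went 5 days without medium change, then were fixed, permeabilised and Hoechst-stained together, imaged at 4× and counted by MetaXpress. Viability is the ratio of treated-well to vehicle-well nuclei, taken as a median over plates. Plates required control CV below 25% and at least one doubling.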

Row | Cell Line | relative viability
1 | Calu-6 | 0.98
2 | HCC-366 | 0.729
3 | NCI-H1703 | 0.866
4 | NCI-H647 | 0.926
5 | LK-2 | 1.09
6 | NCI-H2126 | 0.908
7 | NCI-H1793 | 0.886
8 | H3255 | 0.743
9 | COR-L23 | 1.02
10 | COR-L 105 | 0.944
11 | IA-LM | 0.885
12 | LOU-NH91 | 0.839
13 | NCI-H358 | 0.963
14 | NCI-H3122 | 0.854
15 | HOP-62 | 0.954
16 | HCC-44 | 0.816
17 | A549 | 0.906
18 | LXF-289 | 0.806
19 | BEN | 1.06
20 | HARA | 0.844
21 | HCC-78 | 0.891
22 | LCLC-97TM1 | 0.803
23 | NCI-H2023 | 0.952
24 | NCI-H460 | 0.864
25 | NCI-H727 | 0.947
26 | NCI-H520 | 1.01
27 | NCI-H2405 | 0.859
28 | SW 1573 | 1.08
29 | NCI-H1395 | 0.882

same assay, conditions: 0.03162 µM

Row | Cell Line | relative viability
30 | NCI-H2087 | 1.22
31 | Calu-6 | 1.04
32 | HCC-366 | 1.14
33 | NCI-H1703 | 0.821
34 | NCI-H647 | 0.959
35 | LK-2 | 0.89
36 | NCI-H2126 | 0.996
37 | NCI-H1793 | 0.804
38 | H3255 | 0.986
39 | COR-L23 | 0.969
40 | COR-L 105 | 0.894
41 | IA-LM | 0.901
42 | LOU-NH91 | 0.888
43 | NCI-H358 | 0.967
44 | NCI-H3122 | 1.03
45 | HOP-62 | 0.995

Row | Cell Line | relative viability
46 | HCC-44 | 1.01
47 | A549 | 0.953
48 | LXF-289 | 0.973
49 | BEN | 0.845
50 | HARA | 0.874
51 | HCC-78 | 0.814
52 | LCLC-97TM1 | 1.03
53 | NCI-H2023 | 1.01
54 | A-427 | 0.951
55 | NCI-H460 | 1.01
56 | NCI-H727 | 0.948
57 | NCI-H1755 | 0.935
58 | NCI-H520 | 1.11
59 | NCI-H2405 | 0.953
60 | SW 1573 | 0.945
61 | NCI-H1395 | 0.965

same assay, conditions: 0.1 µM

Row | Cell Line | relative viability
62 | NCI-H2087 | 1.07
63 | Calu-6 | 1.06
64 | HCC-366 | 0.75
65 | NCI-H1703 | 0.526
66 | NCI-H647 | 1.07
67 | LK-2 | 1.23
68 | NCI-H2126 | 0.978
69 | NCI-H1793 | 0.878
70 | H3255 | 0.766
71 | COR-L23 | 1.06
72 | COR-L 105 | 0.976
73 | IA-LM | 1.01
74 | LOU-NH91 | 0.925
75 | NCI-H358 | 0.961
76 | NCI-H3122 | 0.959
77 | HOP-62 | 0.962

Row | Cell Line | relative viability
78 | HCC-44 | 0.978
79 | A549 | 1.09
80 | LXF-289 | 0.941
81 | BEN | 1.16
82 | HARA | 0.772
83 | HCC-78 | 0.956
84 | LCLC-97TM1 | 0.869
85 | NCI-H2023 | 0.984
86 | A-427 | 0.69
87 | NCI-H460 | 0.949
88 | NCI-H727 | 1.08
89 | NCI-H1755 | 0.886
90 | NCI-H520 | 1.24
91 | NCI-H2405 | 0.907
92 | SW 1573 | 1.1
93 | NCI-H1395 | 1.04

same assay, conditions: 0.3162 µM

Row | Cell Line | relative viability
94 | NCI-H2087 | 1.18
95 | Calu-6 | 0.977
96 | HCC-366 | 0.977
97 | NCI-H1703 | 0.32
98 | NCI-H647 | 0.983
99 | LK-2 | 1.19
100 | NCI-H2126 | 0.847
101 | NCI-H1793 | 0.978
102 | H3255 | 0.784
103 | COR-L23 | 0.984
104 | COR-L 105 | 0.856
105 | IA-LM | 0.977
106 | LOU-NH91 | 0.838
107 | NCI-H358 | 0.892
108 | NCI-H3122 | 1
109 | HOP-62 | 1.08

Row | Cell Line | relative viability
110 | HCC-44 | 0.871
111 | A549 | 1.03
112 | LXF-289 | 1
113 | BEN | 0.953
114 | HARA | 0.742
115 | HCC-78 | 0.789
116 | LCLC-97TM1 | 1.02
117 | NCI-H2023 | 0.922
118 | A-427 | 1.08
119 | NCI-H460 | 0.876
120 | NCI-H727 | 0.945
121 | NCI-H1755 | 1.02
122 | NCI-H520 | 0.999
123 | NCI-H2405 | 0.973
124 | SW 1573 | 1.02
125 | NCI-H1395 | 0.967

same assay, conditions: 1 µM

Row | Cell Line | relative viability
126 | NCI-H2087 | 1.01
127 | Calu-6 | 0.985
128 | HCC-366 | 0.994
129 | NCI-H1703 | 0.261
130 | NCI-H647 | 0.873
131 | LK-2 | 1.08
132 | NCI-H2126 | 0.931
133 | NCI-H1793 | 0.795
134 | H3255 | 0.906
135 | COR-L23 | 0.981
136 | COR-L 105 | 0.897
137 | IA-LM | 0.982
138 | LOU-NH91 | 0.904
139 | NCI-H358 | 0.893
140 | NCI-H3122 | 1.08
141 | HOP-62 | 1.01

Row | Cell Line | relative viability
142 | HCC-44 | 0.961
143 | A549 | 0.856
144 | LXF-289 | 1.01
145 | BEN | 0.975
146 | HARA | 0.909
147 | HCC-78 | 0.902
148 | LCLC-97TM1 | 0.928
149 | NCI-H2023 | 0.901
150 | A-427 | 0.931
151 | NCI-H460 | 0.983
152 | NCI-H727 | 0.92
153 | NCI-H1755 | 0.935
154 | NCI-H520 | 1.01
155 | NCI-H2405 | 0.932
156 | SW 1573 | 0.974
157 | NCI-H1395 | 0.85
